Measurements reported in ChEMBL document CHEMBL4385595, “Advancement of multi-target drug discoveries and promising applications in the field of Alzheimer's disease” (Eur J Med Chem, 2019).
Each block holds one compound with its values, some of them ahead of it.

Legend:
Acetylcholinesterase = Acetylcholinesterase (Homo sapiens, UniProt P22303); assay: Inhibition of human AChE
[1] = target: Glutamate [NMDA] receptor; assay: Inhibition of NMDA receptor (unknown origin); assay type: protein-complex assay, Homo sapiens
SK-N-SH = assay: Inhibition of apoptosis in human SK-N-SH cells assessed as […] in cleaved caspase-3 by Western blot analysis; assay type: functional, cell-based
[2] = target: Microtubule-associated protein tau (Homo sapiens) (UniProt P10636); assay: Inhibition of tau aggregation (unknown origin) at 20 uM
Cholinesterase [3] = target: T1, Cholinesterase (Homo sapiens, UniProt P06276); assay: Inhibition of human BuChE
[4] = target: Amyloid-beta precursor protein (Homo sapiens) (UniProt P05067); assay: Inhibition of self-induced amyloid beta (1 to 42) (unknown origin) aggregation at 20 uM
[5] = target: Glycogen synthase kinase-3 beta (Homo sapiens, UniProt P49841); assay: Inhibition of human recombinant GSK-3beta using 19F peptide as substrate measured after 1.5 hrs by fluorescence method
Beta-secretase 1 = Beta-secretase 1 (Homo sapiens, UniProt P56817); assay: Inhibition of human recombinant BACE-1 using 19F peptide as substrate measured after 5 hrs by fluorescence method
Cholinesterase [6] = target: T1, Cholinesterase; assay: Inhibition of BChE (unknown origin)
Mus musculus = assay: In-vivo inhibition of NMDA receptor in mouse assessed as reduction in NMDA-induced convulsions administered intraperitoneally 40 mins before NMDA injection; assay type: functional, organism-based
[7] = Inhibition of calcium channel in rat ileum intestine assessed as reduction in Ca-induced contraction; assay type: tissue-based
Cholinesterase [8] = target: T1, Cholinesterase; assay: Inhibition of BuChE (unknown origin) assessed as decrease in thiocholine accumulation by spectrophotometry

T1 sequence (P06276 whole entry): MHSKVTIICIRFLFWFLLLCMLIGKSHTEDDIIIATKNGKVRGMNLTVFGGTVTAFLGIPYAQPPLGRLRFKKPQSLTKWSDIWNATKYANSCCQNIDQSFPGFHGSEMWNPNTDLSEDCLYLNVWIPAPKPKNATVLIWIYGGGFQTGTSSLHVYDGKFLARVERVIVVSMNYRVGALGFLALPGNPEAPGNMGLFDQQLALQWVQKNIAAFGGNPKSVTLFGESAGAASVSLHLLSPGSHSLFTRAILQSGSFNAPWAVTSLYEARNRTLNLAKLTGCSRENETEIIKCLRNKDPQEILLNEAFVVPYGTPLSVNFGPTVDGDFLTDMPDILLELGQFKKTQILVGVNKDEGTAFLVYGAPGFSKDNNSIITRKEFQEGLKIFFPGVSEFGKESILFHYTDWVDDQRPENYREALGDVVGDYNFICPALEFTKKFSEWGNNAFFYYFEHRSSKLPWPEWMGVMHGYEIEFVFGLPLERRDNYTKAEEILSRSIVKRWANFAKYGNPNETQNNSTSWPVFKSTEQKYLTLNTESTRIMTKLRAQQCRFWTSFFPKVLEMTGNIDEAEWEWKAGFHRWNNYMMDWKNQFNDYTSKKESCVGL
Chain of Acetylcholinesterase (P22303 whole entry): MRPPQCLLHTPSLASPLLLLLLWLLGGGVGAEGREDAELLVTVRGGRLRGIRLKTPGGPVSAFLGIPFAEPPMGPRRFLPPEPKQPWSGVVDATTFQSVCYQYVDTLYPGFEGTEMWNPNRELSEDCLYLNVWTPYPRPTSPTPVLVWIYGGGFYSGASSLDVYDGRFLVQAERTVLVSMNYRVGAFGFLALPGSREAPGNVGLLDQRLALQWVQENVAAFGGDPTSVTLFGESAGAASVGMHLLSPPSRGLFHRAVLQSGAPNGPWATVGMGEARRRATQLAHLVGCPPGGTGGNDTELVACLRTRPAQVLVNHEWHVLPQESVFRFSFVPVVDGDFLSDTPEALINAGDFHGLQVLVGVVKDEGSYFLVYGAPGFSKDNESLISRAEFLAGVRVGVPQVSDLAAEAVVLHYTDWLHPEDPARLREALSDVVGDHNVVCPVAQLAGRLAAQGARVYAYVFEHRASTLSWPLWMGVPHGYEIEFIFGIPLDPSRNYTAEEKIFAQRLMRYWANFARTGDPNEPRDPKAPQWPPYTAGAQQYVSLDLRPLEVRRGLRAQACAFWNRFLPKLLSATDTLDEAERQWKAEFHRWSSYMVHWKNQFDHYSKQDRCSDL
Chain of Glycogen synthase kinase-3 beta (P49841 whole entry): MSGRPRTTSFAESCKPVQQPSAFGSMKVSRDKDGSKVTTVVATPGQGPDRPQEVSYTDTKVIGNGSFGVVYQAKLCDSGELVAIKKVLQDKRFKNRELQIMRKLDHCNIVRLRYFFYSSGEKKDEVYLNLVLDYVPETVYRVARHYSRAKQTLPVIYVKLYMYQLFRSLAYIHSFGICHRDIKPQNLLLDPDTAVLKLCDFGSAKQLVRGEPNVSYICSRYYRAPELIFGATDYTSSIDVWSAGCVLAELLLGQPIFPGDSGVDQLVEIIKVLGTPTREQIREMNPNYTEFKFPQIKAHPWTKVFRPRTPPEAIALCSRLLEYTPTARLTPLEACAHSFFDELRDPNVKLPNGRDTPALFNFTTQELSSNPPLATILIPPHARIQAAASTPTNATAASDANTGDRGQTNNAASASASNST
Chain of Beta-secretase 1 (P56817 whole entry): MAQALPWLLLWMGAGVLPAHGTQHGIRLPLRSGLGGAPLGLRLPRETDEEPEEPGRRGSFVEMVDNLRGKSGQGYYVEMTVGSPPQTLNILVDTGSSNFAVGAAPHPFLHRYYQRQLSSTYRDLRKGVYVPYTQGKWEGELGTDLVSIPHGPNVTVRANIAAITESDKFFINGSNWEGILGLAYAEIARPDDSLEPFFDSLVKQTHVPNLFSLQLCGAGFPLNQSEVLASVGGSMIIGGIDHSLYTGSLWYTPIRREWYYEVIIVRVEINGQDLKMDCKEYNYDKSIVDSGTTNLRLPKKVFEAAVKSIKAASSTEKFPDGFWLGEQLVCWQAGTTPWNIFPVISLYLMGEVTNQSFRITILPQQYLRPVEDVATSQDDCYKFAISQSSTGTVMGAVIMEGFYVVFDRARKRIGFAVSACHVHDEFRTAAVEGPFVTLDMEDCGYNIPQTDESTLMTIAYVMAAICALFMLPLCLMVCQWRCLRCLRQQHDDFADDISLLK
Chain of Amyloid-beta precursor protein (Homo sapiens) (P05067 whole entry): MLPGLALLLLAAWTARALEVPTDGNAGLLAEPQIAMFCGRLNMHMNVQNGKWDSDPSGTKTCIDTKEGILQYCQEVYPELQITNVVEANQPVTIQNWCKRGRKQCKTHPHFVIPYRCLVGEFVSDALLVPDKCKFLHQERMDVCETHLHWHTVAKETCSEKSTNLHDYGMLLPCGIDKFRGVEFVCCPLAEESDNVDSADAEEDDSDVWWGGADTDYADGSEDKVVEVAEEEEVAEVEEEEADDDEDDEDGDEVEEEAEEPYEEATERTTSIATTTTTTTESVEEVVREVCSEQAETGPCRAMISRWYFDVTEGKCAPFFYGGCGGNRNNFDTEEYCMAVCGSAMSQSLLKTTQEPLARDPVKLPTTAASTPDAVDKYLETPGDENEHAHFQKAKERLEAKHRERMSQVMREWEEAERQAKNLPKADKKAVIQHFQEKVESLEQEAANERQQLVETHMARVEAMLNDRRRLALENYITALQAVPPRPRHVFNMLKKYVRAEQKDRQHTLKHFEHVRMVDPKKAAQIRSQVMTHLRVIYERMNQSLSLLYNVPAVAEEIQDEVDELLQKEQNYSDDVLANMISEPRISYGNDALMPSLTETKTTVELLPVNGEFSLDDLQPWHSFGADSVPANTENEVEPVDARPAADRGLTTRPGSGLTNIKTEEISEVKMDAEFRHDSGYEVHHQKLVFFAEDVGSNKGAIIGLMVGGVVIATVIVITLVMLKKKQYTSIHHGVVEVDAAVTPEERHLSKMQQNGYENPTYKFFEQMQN
Chain of Microtubule-associated protein tau (Homo sapiens) (P10636 whole entry): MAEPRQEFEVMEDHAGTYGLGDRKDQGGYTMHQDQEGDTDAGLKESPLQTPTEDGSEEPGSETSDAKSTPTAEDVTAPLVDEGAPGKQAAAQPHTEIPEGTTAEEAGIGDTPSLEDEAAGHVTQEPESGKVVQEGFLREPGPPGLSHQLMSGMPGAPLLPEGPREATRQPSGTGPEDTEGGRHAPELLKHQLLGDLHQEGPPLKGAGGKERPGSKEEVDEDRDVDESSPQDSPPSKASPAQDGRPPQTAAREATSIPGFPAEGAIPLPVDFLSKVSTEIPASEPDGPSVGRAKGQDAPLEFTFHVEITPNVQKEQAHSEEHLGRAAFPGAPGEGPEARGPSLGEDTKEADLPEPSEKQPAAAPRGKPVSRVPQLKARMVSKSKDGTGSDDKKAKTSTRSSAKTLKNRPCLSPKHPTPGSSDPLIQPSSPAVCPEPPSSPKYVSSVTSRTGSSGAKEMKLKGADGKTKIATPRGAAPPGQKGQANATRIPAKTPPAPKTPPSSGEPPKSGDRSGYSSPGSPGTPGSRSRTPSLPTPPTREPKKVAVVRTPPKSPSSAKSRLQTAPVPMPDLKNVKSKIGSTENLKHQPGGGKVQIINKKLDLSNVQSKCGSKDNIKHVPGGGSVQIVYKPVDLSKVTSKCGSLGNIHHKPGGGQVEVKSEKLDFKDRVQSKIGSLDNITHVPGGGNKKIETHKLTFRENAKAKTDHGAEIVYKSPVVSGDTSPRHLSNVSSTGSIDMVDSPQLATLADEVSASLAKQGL

Compound: Cc1ccc2[nH]c3c(c2c1)CN(CCCCCCN1CCc2[nH]c4ccc(C)cc4c2C1)CC3
IC50 (Acetylcholinesterase): 0.195 µM
IC50 [1]: 11 µM

Compound: C#CCN[C@@H]1CCc2ccc(OC(=O)N(C)CC)cc21 [LADOSTIGIL]
IC50 (SK-N-SH): 1050 µM

Compound: CC[C@@H](CN1CCCC1=O)C(=O)NCCCCCCCNc1c2c(nc3cc(Cl)ccc13)C[C@H]1C=C(C)C[C@@H]2C1
IC50 (Acetylcholinesterase): 0.0042 µM
inhibition [2]: 54%
IC50 (Cholinesterase [3]): 0.232 µM
inhibition [4]: 36%

IC50 [5]: 0.7 µM
IC50 (Beta-secretase 1): 0.3 µM
Compound: O=c1[nH]c(=O)c2cc[nH]c2[nH]1 [7-DEAZAXANTHINE]

Compound: CCN1CCc2c(c3ccccc3n2CCC(=O)N2c3ccccc3Sc3ccccc32)C1
IC50 (Cholinesterase [6]): 0.52 µM

Compound: Cc1ccc2c(c1)c1c(n2CCc2ccc(C)nc2)CCN(C)C1 [LATREPIRDINE]
EC50 (Mus musculus): 42 mg/kg
IC50 [7]: 57 µM
IC50 (Cholinesterase [8]): 7900 µM
